Like-named read-outs stand apart in the source and are kept apart here.
Tested on: BT474 xenografts
Settings: for tumor SUV, % of pretreatment SUV: mice without DOX (n=8), mean±SD

Q: OC[C@H]1OC(O)[C@H]([18F])[C@@H](O)[C@@H]1O (stereo partly shown) [Agent F-18-FDG, 2’-F-18-fluorodeoxyglucose] was tested. Which “muscle uptake in contralateral normal thigh” value (PET imaging, mouse bearing BT474 tumor in the right thigh) did it give?
A: The value was “significant”.

Q: And the “tumor SUV, % of pretreatment SUV” value (3rd week)?
A: Its value is 108±28%.

Q: What about the “tumor SUV, % of pretreatment SUV” value (5th week) of the same compound?
A: The value was 151±8%.

Q: What about the “tumor SUV, % of pretreatment SUV” value (7th week) of the same compound?
A: Its value is 152±355%.
